Data reported in patent US5994342A, “3-(substituted methyl)-4-oxa-1-azabicyclo[3.2.0]heptan-7-one derivatives useful as antitumor agents” (priority 1994, dated 1999).
Converted amounts (≈) assume the structure as drawn. Counter-ions that a name gives are not always drawn.

How the values were obtained:
[1] = tested on: KB cells; assay: In vitro KB cell cytotoxicity assay (crystal violet); format: cell-based; details: Homo sapiens, 72 h, 3 days culture, read-out: KB Cell Cytotoxicity TD50
Experimental: In Vitro KB Cell Cytotoxicity Assay In vitro KB cell cytoxocity assay was done by modification of the crystal violet assay ([…] et al., Anal Biochem., 159, 109-113 (1986). KB cells were cultivated in Eagles minimum essential medium supplemented with 10% calf serum and incubated at 37° C. in a humidified 5% CO2 atmosphere to prepare a cell stock. Cells were counted using a neubauer hemocytometer and seeded in 96 well plates at 100 μl of 3×10^4 cells/ml and cultured for one day. […] Control wells were identical except that test compound was absent. These were cultured for three days. Then the cells were fixed with addition of 20 μl of 25% glutaraldehyde for 15 minutes, washed with water and dried. Then stained with 100 μl of 0.05% crystal violet for 15 minutes, washed with water and dried. The wells are eluted with […] of 0.05M NaH2 PO4 /ethanol (1:1 v/v) and read at OD540 on a multiscan spectrophotometer. Inhibition value of cell growth was calculated based on optical density using the following equation; [formula] TD50 values were calculated from linear regression ines of the log-logit plot.

[2] = tested on: Sarcoma 180; assay: In vivo antitumor activity against Sarcoma 180; parameters: species or system male ICR mice; details: i.p., days 1, 5 and 9
Experimental: In Vivo Antitumor Activity Against Sarcoma 180
The compounds of general formula (I) were tested in vivo against Sarcoma 180 xenografted tumor to mice as illustrated herein after.
Sarcoma 180, 5×10^6 cells were inoculated by S.C. to male ICR mice (6 week old) on day 0. Drugs were administered on days 1, 5 and 9. Mice were killed and tumor weight was measured on day 12 after transplantation. The percentage inhibition of tumor growth was calculated from the mean tumor weight of the treated group compared with that of the control group. Number of mice used in each group was between 6 to 7.

[3] = Mus musculus, Sarcoma-180, ip, 288 h, 25 mg/kg/day, tumor s.c., tumor weight day 12, read-out: % Inhibition of tumor growth
[4] = Mus musculus, Sarcoma-180, ip, 288 h, 50 mg/kg/day, tumor s.c., tumor weight day 12, read-out: % Inhibition of tumor growth
[5] = Mus musculus, Sarcoma-180, ip, 288 h, 100 mg/kg/day, tumor s.c., tumor weight day 12, read-out: % Inhibition of tumor growth
[6] = Mus musculus, Sarcoma-180, ip, 288 h, 12.5 mg/kg/day, tumor s.c., tumor weight day 12, read-out: % Inhibition of tumor growth
[7] = Mus musculus, Sarcoma-180, ip, 288 h, 40 mg/kg/day, tumor s.c., tumor weight day 12, read-out: % Inhibition of tumor growth

| Compound | IC50 [1] [µg/mL] | Mortality in 12 days ([2]; 25 mg/kg/day) | Mortality in 12 days ([2]; 50 mg/kg/day) | inhibition in vivo at 25 mg/kg [2, 3] [%] | inhibition in vivo at 50 mg/kg [2, 4] [%] | Mortality in 12 days ([2]; 100 mg/kg/day) | inhibition in vivo at 100 mg/kg [2, 5] [%] | Mortality in 12 days ([2]; 12.5 mg/kg/day) | inhibition in vivo at 12.5 mg/kg [2, 6] [%] | also measured |
| --- | --- | --- | --- | --- | --- | --- | --- | --- | --- | --- |
| CC(C)[C@H](N)C(=O)NCC(=O)NC[C@@H]1CN2C(=O)C[C@H]2O1.Cl (mixture of isomers) [Example 45B, (3RS,5RS)-3-[N-(L-2-amino-3-methylbutyryl)aminoacetyl]aminomethyl-4-oxa-1-azabicyclo[3.2.0]heptan-7-one hydrochloride] | 1.97 | 0/6 | 0/6 | 39.3 | 81.7 |  |  |  |  |  |
| N[C@H](CCC(=O)NCC1CN2C(=O)CC2O1)C(=O)O (stereo partly drawn) [Example 69B, (3RS,5RS)-3-N-(D-4-Amino-4-carboxybutyryl)aminomethyl-4-oxa-1-azabicyclo[3.2.0]heptan-7-one] | 2.47 (≈ 9.11 µM) |  |  |  |  | 0/6 | 37.8 |  |  |  |
| Cl.NCC(=O)NCC(=O)OC[C@H]1CN2C(=O)C[C@@H]2O1 (racemic) [Example 40B, (3RS,5SR)-3-[N-(Aminoacetyl)aminoacetyl]oxymethyl-4-oxa-1-azabicyclo[3.2.0]heptan-7-one hydrochloride] | 0.636 | 0/6 | 0/6 | 54 | 72 |  |  | 0/6 | 48.3 |  |
| Cl.NC[C@@H]1CN2C(=O)C[C@H]2O1 (racemic) [Example 22, (3RS,5RS)-3-aminomethyl-4-oxa-1-azabicyclo[3.2.0]heptan-7-one hydrochloride] | 0.344 |  |  |  |  |  |  |  |  | Mortality in 12 days ([2]; 40 mg/kg/day): 0/6; Mortality in 12 days ([2]; 80 mg/kg/day): 0/6; inhibition in vivo at 40 mg/kg [2, 7]: 26.7%; inhibition in vivo at 80 mg/kg ([2]; Mus musculus, Sarcoma-180, ip, 288 h, 80 mg/kg/day, tumor s.c., tumor weight day 12, read-out: % Inhibition of tumor growth): 40.3% |
| CCCCCC(=O)NC[C@@H]1CN2C(=O)C[C@H]2O1 (racemic) [Example 4, (3RS,5RS)-3-(N-Hexanoylaminomethyl)-4-oxa-1-azabicyclo[3.2.0]heptan-7-one] | 0.312 (≈ 1.3 µM) |  |  |  |  | 0/6 | 49.4 |  |  |  |
| O=C(NC[C@@H]1CN2C(=O)C[C@H]2O1)NC[C@@H]1CN2C(=O)C[C@H]2O1 (racemic) [Example 34, N,N'-Di-{[(3RS,5RS)-7-oxo-1-aza-4-oxabicyclo[3.2.0]hept-3-yl]methyl}urea] | 0.151 (≈ 0.487 µM) | 5/6 |  | 92.5 |  |  |  | 0/6 | 76.3 | Mortality in 12 days ([2]; 6.25 mg/kg/day): 0/6; inhibition in vivo at 6.25 mg/kg ([2]; Mus musculus, Sarcoma-180, ip, 288 h, 6.25 mg/kg/day, tumor s.c., tumor weight day 12, read-out: % Inhibition of tumor growth): 59.8% |
| CS(=O)(=O)NC[C@H]1CN2C(=O)C[C@H]2O1 (racemic) [Example 35, (3RS,5RS)-3-(N-Methanesulfonylaminomethyl)-4-oxa-1-azabicyclo[3.2.0]heptan-7-one] | 0.198 (≈ 0.899 µM) |  |  |  |  | 1/6 | 64.6 |  |  |  |
| Cl.NCC(=O)OC[C@H]1CN2C(=O)C[C@@H]2O1 (racemic) [Example 39, (3RS,5SR)-3-(Aminoacetyl)oxymethyl-4-oxa-1-azabicyclo[3.2.0]heptan-7-one hydrochloride] | 0.613 | 0/6 | 0/6 | 56.7 | 76.7 |  |  | 0/6 | 41.9 |  |
| NCC(=O)NC[C@@H]1CN2C(=O)C[C@H]2O1 (relative stereo) [Example 43, (3RS,5RS)-3-N-(Aminoacetyl)aminomethyl-4-oxa-1-azabicyclo[3.2.0]heptan-7-one hydrochloride] | 0.429 | 0/6 | 0/6 | 58.9 | 72.1 |  |  | 0/6 | 57 | Mortality in 12 days ([2]; 6.3 mg/kg/day): 0/6; inhibition in vivo at 6.3 mg/kg ([2]; Mus musculus, Sarcoma-180, ip, 288 h, 6.3 mg/kg/day, tumor s.c., tumor weight day 12, read-out: % Inhibition of tumor growth): 48.7% |
| N[C@H](CCC(=O)OC[C@H]1CN2C(=O)C[C@@H]2O1)C(=O)O (mixture of isomers) [Example 68B, (3RS,5SR)-3-(D-4-Amino-4-carboxybutyryl)oxymethyl-4-oxa-1-azabicyclo[3.2.0]heptan-7-one] | 0.189 | 0/6 | 3/6 | 69.7 | 80.3 |  |  | 0/6 | 49.1 |  |
| CC(=O)NCC(=O)NC[C@@H]1CN2C(=O)C[C@H]2O1 (relative stereo) [Example 44, (3RS,5RS)-3-N-(N-Acetylaminoacetyl)aminomethyl-4-oxa-1-azabicyclo[3.2.0]heptan-7-one] | 0.341 (≈ 1.41 µM) | 4/6 |  | 85.3 |  |  |  | 0/6 | 45.9 |  |
| CC(C)[C@@H](N)C(=O)OC[C@H]1CN2C(=O)C[C@@H]2O1.Cl (mixture of isomers) [Example 60B, (3RS,5SR)-3-(D-2-Amino-3-methylbutyryl)oxymethyl-4-oxa-1-azabicyclo[3.2.0]heptan-7-one hydrochloride] | 0.903 |  | 0/6 |  | 49.8 | 0/6 | 77.7 |  |  |  |
| O=C1C[C@H]2O[C@H](CNC(=O)C(F)(F)F)CN12 (racemic) [Example 7, (3RS,5RS)-3-[N-(Trifluoroacetyl)aminomethyl]-4-oxa-1-azabicyclo[3.2.0]heptan-7-one] | 0.205 (≈ 0.861 µM) |  |  |  |  | 2/6 | 39.8 |  |  |  |
| N[C@@H](CC(=O)OC[C@H]1CN2C(=O)C[C@@H]2O1)C(=O)O (mixture of isomers) [Example 65B, (3RS,5SR)-3-(L-3-Amino-3-carboxypropanoyl)oxymethyl-4-oxa-1-azabicyclo[3.2.0]heptan-7-one] | 0.451 |  |  |  |  | 0/6 | 55 |  |  |  |
| CC(C)[C@@H](N)C(=O)N[C@@H](C(=O)OCC1CN2C(=O)CC2O1)C(C)C (stereo partly drawn) [Example 62B, (3RS,5SR)-3-[D-2-N-(D-2-Amino-3-methylbutyryl)amino-3-methylbutyryl]oxymethyl-4-oxa-1-azabicyclo[3.2.0]heptan-7-one hydrochloride] | 0.381 |  |  |  |  | 0/6 | 42.1 |  |  |  |
| CC(C)[C@H](N)C(=O)NCC(=O)OC[C@H]1CN2C(=O)C[C@@H]2O1.Cl (mixture of isomers) [Example 42B, (3RS,5SR)-3-[N-(L-2-Amino-3-methylbutyryl)aminoacetyl]oxymethyl-4-oxa-1-azabicyclo[3.2.0]heptan-7-one hydrochloride] | 0.388 | 0/6 | 0/6 | 69 | 85.8 |  |  | 0/6 | 49.9 |  |
| O=C(Cc1cccs1)NC[C@@H]1CN2C(=O)C[C@H]2O1 (racemic) [Example 31, (3RS,5RS)-3-[N-(Thiophen-2-yl)acetylaminomethyl]-4-oxa-1-azabicyclo[3.2.0]heptan-7-one] | 0.098 (≈ 0.368 µM) |  |  |  |  |  |  |  |  | Mortality in 12 days ([2]; 40 mg/kg/day): 1/6; inhibition in vivo at 40 mg/kg [2, 7]: 35.5% |
| CC(=O)NC[C@H]1CN2C(=O)C[C@@H]2O1 [Example 2, (3S,5S)-3-(N-Acetylaminomethyl)-4-oxa-1-azabicyclo[3.2.0]heptan-7-one] | 0.77 (≈ 4.18 µM) |  |  |  |  |  |  |  |  | Mortality in 12 days ([2]; 10 mg/kg/day): 0/6; Mortality in 12 days ([2]; 20 mg/kg/day): 1/7; inhibition in vivo at 10 mg/kg ([2]; Mus musculus, Sarcoma-180, ip, 288 h, 10 mg/kg/day, tumor s.c., tumor weight day 12, read-out: % Inhibition of tumor growth): 44.7%; inhibition in vivo at 20 mg/kg ([2]; Mus musculus, Sarcoma-180, ip, 288 h, 20 mg/kg/day, tumor s.c., tumor weight day 12, read-out: % Inhibition of tumor growth): 77.5% |
